Assay results taken from PMC6017655, “In Silico and in Vitro-Guided Identification of Inhibitors of Alkylquinolone-Dependent Quorum Sensing in Pseudomonas aeruginosa” (Molecules : A Journal of Synthetic Chemistry and Natural …, 2018).

Legend:
[1] = system: pyocyanin production by PAO1-L; assay: Pyocyanin production assay, PAO1-L; format: cell-based, Pseudomonas aeruginosa; conditions: 3x IC50, 16 h
Protocol: Pyocyanin is a blue redox-active toxin, produced by P. aeruginosa and strongly-controlled by PqsR via the regulation of pqsE expression. Pyocyanin is essential for the pathogenicity of P. aeruginosa in lung infections. The effect of the PqsR inhibitors on pyocyanin production by PA14 and PAO1-L strains, when grown in the presence or absence of the inhibitors, was investigated (Figure 4).
The experiment was performed following a published protocol with minor modifications. P. aeruginosa strains were cultured into 5 mL fresh medium overnight. […] Cells were centrifuged at 10,000 RCF for 10 min (Allegra 64R centrifuge, Beckman Coulter, High Wycombe, UK) and the supernatant was transferred to 15 mL falcon tubes with a HSW 10 mL Soft-Ject Syringe and a […] Sartorius syringe-driven filter (Fisher Brand, Loughborough, UK). Pyocyanin pigment was extracted into chloroform by mixing 7.5 mL of supernatant with 4.5 mL of chloroform. Pyocyanin was further extracted into 1.5 mL of 0.2 M HCL, which gave a pink/red solution, and the absorbance was measured at 520 nm.

[2] = Hepatic microsomal stability, rat; format: in vitro ADME; conditions: liver microsomes, pH 7.4, 0.5 mg/mL protein, NADPH, 37 °C; for microsomal CLint at 1 µM: read-out: Microsomal Stability Rat Clint (intrinsic clearance); for half-life at 1 µM: read-out: Microsomal Stability Rat t1/2
Protocol: (§1) Dilutions of a 1 mM test compound DMSO stock solution were prepared in buffer (typically 0.01 M phosphate buffered saline (pH 7.4) so that the final DMSO concentration was 0.1% v/v and the final test compound concentration tested was 1 µM. Following addition of protein (0.5 mg/mL final) and NADPH, the samples were pre-incubated for 10 min prior to the start of the incubation by the addition of test compound. The test compounds were then incubated (n = 2; 1 µM final concentration) at 37 °C with tissue microsomes. Aliquots were sampled at several time points and mixed with acetonitrile (containing internal standard) to terminate the reaction and precipitate the proteins. All the samples were mixed, centrifuged and the supernatants analysed by UPLC-MS/MS. The intrinsic clearance (Clint) and half-life (t 1/2) values were determined from the slope of the parent depletion curve. Control compounds for low, moderate and high intrinsic clearance, respectively, for both human and rat microsomes, were included.

PAO1-L = assay: Bacterial growth (optical density) in reporter assay, PAO1-L; format: cell-based, Pseudomonas aeruginosa; conditions: compound vs DMSO control
Protocol: (§2) To determine the ability of the quinolines to inhibit PqsR functionality, the P. aeruginosa biosensor strains, PAO1-L and PA14, incorporating a chromosomal mCTX::PpqsA-lux transcriptional fusion, were used. These report on the activation of the pqsA promoter, regulated by PqsR [25]. PAO1-L and PA14 were chosen because they are genetically amenable and belong to the two major P. aeruginosa genomic groups. The quinolone compounds were incubated with the corresponding strain, and luminescence and optical density readings were recorded to monitor the effect of the quinolines on PqsR activity and bacterial growth, respectively. The compounds were screened at 10 µM concentration, and the activity was compared to a control of DMSO (0.1%) (Figure 3a). To be considered a hit, a threshold of at least 50% inhibition of the test compound, relative to the negative control had to be reached, without affecting bacterial growth. […] Concentration-response experiments were then carried out to determine the IC50 values (Figure 3b,c), which are summarised in Table 1.
(§3) Figure 3 Whole bacterial cell-based P. aeruginosa compound screen for both PqsR and growth inhibition (a) Activity against PA14 (green) and PAO1-L (purple) PpqsA-lux reporter strains at 10 µM test compound; (b) and (c) Dose-response curves for active compounds against PA14 (b) and PAO1-L (c); (d) and (e) growth curves for PA14 (d) and PAO1-L (e) in the presence of compound or DMSO control.

[3] = Hepatic microsomal stability, human; format: in vitro ADME; conditions: liver microsomes, pH 7.4, 0.5 mg/mL protein, NADPH, 37 °C; for half-life at 1 µM: read-out: Microsomal Stability Human t1/2
Protocol: as §1

PA14 = assay: Bacterial growth (optical density) in reporter assay, PA14; format: cell-based, Pseudomonas aeruginosa; conditions: compound vs DMSO control
Protocol: as §2, §3

Plasma stability, rat = format: in vitro ADME; conditions: 37 °C, up to 2 h, read-out: Plasma Stability Rat t1/2
Protocol: Dilutions of a 10 mM test compound DMSO stock solution were prepared so that the final DMSO concentration was 1% v/v and the final test compound concentration tested was 1 µM. Following the addition of the test compound to plasma, the samples were pre-incubated for 10 min prior to the start of the incubation by the addition of the test compound. The test compound was incubated (n = 2; 1 µM final concentration) at 37 °C with plasma for up to 2 h. Aliquots were sampled at several time points and mixed with acetonitrile (containing internal standard) to terminate the reaction and precipitate the proteins. All the samples were mixed, centrifuged and the supernatants analysed by UPLC-MSMS. Parent disappearance and half-life (t 1/2) values were determined from the slope of the parent depletion curve. Control compounds (imidapril, enalapril, tenofovir and/or propantheline), were respectively included.

Compound	Effect on pyocyanin production (in words), PAO1-L [1]	microsomal CLint at 1 µM [2]	half-life at 1 µM [2]	Effect on bacterial growth, PAO1-L (PAO1-L)	microsomal CLint at 1 µM [3]	half-life at 1 µM [3]	Effect on bacterial growth, PA14 (PA14)	half-life at 1 µM (Plasma stability, rat)	Reduction of pyocyanin production, PAO1-L ([1]; strain not singled out in the sentence)
O=CN1N=C(c2ccccc2)CC1c1cccc(Nc2ccnc3cc(Cl)ccc23)c1 (centres unmarked) [Ia]	strongest effect	122 µL/min/mg	11.5 min	without interfering with bacterial growth	60.3 µL/min/mg	23.3 min	without interfering with bacterial growth	> 240 min	
CC(=O)N1N=C(c2ccccc2)CC1c1cccc(Nc2ccnc3cc(Cl)ccc23)c1 (centres unmarked) [IIa]	weakest effect	87.8 µL/min/mg	15.8 min	without interfering with bacterial growth	73 µL/min/mg	19 min	without interfering with bacterial growth	> 240 min	over 25%
